{
  "source": "patent US20090011424A1",
  "about": "“Cancer-suppressing agents” (Tokyo Medical and Dental University, priority 2005, published 2009)",
  "system": "SMS-KAN cell",
  "experiment": "messenger RNA expression analysis, AceGene Human oligo chip 30 K, NR1I2-expressing clone B1 vs control clone",
  "type": "cell-based",
  "conditions": "1st: Cy3-B1/Cy5-control",
  "from_the_text": "The NR1I2 gene has been known as a transcriptional factor. Thus, it is possible to know what type of gene expression is controlled by obtaining messenger RNAs from cells causing NR1I2 protein expression and cells not causing such expression, and comparing the expression levels thereof with each other. As described above, the NR1I2 gene protein may have an effect of inhibiting cancer. […] Therefore, pCMV-Tag3 vector not containing a foreign gene as a control was introduced into SMS-KAN cell, and pCMV-Tag3-VP-NR1I2 containing the NR1I2 gene as a test sample was introduced into SMS-KAN cell. As a result, a control cell clone and a cell clone B1 permanently causing NR1I2 protein expression were obtained. Thereafter, analysis of messenger RNA expression was carried out using these two types of cells and an AceGene Human oligo chip 30 K (DNA Chip Research Inc.), with which the expression levels of 30,000 human genes can be observed (Inoue. J., et al. Am J. Pathol. 165. 71. 2004). A complementary strand DNA (complimentary DNA) was prepared, into which aminoallyl-dUTP (Ambion Inc.) was incorporated using an Oligo (dT) 12-18 primer. Then, the aminoallyl group was labeled with reactive Cy3 (cyanin 3) and Cy5 (cyanin 5) (Amersham Biosciences) via a coupling reaction. Hybridization was performed twice (1st: Cy3-B1/Cy5-control; 2nd: Cy5-B1/Cy3-control). Signals were measured using a GenePix 4000B (Axon Instruments) so as to be analyzed by GenePix Pro 4.1 software (Axon Instruments). Tables 3 and 4 are lists of genes, where in the cases of SMS-KAN cells into which the NR1I2 gene had been introduced in the two experiments, the expression levels were 1.5-fold or greater than the expression level in the case of a control cell clone.",
  "data": [
    {"substance": "NR1I2 gene: human-derived gene, nuclear receptor subfamily 1, group I, member 2 (pregnane X receptor, PXR), nucleotide sequence SEQ ID NO: 1", "values": [
      {"measurement": "ADAMTS2 expression level Ratio 1st", "value": 1.58},
      {"measurement": "ADNP expression level Ratio 1st", "value": 1.61},
      {"measurement": "AP3S2 expression level Ratio 1st", "value": 2.51},
      {"measurement": "APEG1 expression level Ratio 1st", "value": 1.88},
      {"measurement": "APOA1 expression level Ratio 1st", "value": 1.98},
      {"measurement": "APP expression level Ratio 1st", "value": 2.03},
      {"measurement": "ARHC expression level Ratio 1st", "value": 1.50},
      {"measurement": "ARL2 expression level Ratio 1st", "value": 1.51},
      {"measurement": "ASCL2 expression level Ratio 1st", "value": 2.43},
      {"measurement": "ASH1 expression level Ratio 1st", "value": 1.81},
      {"measurement": "B4GALT5 expression level Ratio 1st", "value": 1.54},
      {"measurement": "BARD1 expression level Ratio 1st", "value": 1.90},
      {"measurement": "BCAT2 expression level Ratio 1st", "value": 1.61},
      {"measurement": "BLP2 expression level Ratio 1st", "value": 1.51},
      {"measurement": "BMP15 expression level Ratio 1st", "value": 1.50},
      {"measurement": "C6orf25 expression level Ratio 1st", "value": 1.74},
      {"measurement": "CCNA1 expression level Ratio 1st", "value": 1.89},
      {"measurement": "CDC7L1 expression level Ratio 1st", "value": 1.84},
      {"measurement": "CISH expression level Ratio 1st", "value": 2.14},
      {"measurement": "CORO2A expression level Ratio 1st", "value": 1.71},
      {"measurement": "Cab45 expression level Ratio 1st", "value": 1.84},
      {"measurement": "DKFZp434G05 expression level Ratio 1st", "value": 1.56},
      {"measurement": "DKKL1 expression level Ratio 1st", "value": 1.53},
      {"measurement": "DNA12 expression level Ratio 1st", "value": 1.52},
      {"measurement": "EPHX1 expression level Ratio 1st", "value": 2.22},
      {"measurement": "ERCC1 expression level Ratio 1st", "value": 1.82},
      {"measurement": "ETR101 expression level Ratio 1st", "value": 1.65},
      {"measurement": "EXT1 expression level Ratio 1st", "value": 1.87},
      {"measurement": "FLJ10737 expression level Ratio 1st", "value": 1.51},
      {"measurement": "FLJ12389 expression level Ratio 1st", "value": 2.16},
      {"measurement": "FLJ13197 expression level Ratio 1st", "value": 2.95},
      {"measurement": "FLJ13479 expression level Ratio 1st", "value": 1.92},
      {"measurement": "FLJ20288 expression level Ratio 1st", "value": 1.81},
      {"measurement": "FLJ20555 expression level Ratio 1st", "value": 1.51},
      {"measurement": "FLJ23462 expression level Ratio 1st", "value": 1.64},
      {"measurement": "FOFR3 expression level Ratio 1st", "value": 1.56},
      {"measurement": "GLI2 expression level Ratio 1st", "value": 2.68},
      {"measurement": "GNE expression level Ratio 1st", "value": 1.87},
      {"measurement": "GSTT2 expression level Ratio 1st", "value": 3.23},
      {"measurement": "GUCY1A3 expression level Ratio 1st", "value": 1.60},
      {"measurement": "HHEX expression level Ratio 1st", "value": 1.55},
      {"measurement": "HNT expression level Ratio 1st", "value": 1.55},
      {"measurement": "HPCL2 expression level Ratio 1st", "value": 1.72},
      {"measurement": "ICAM5 expression level Ratio 1st", "value": 1.52},
      {"measurement": "IFIT4 expression level Ratio 1st", "value": 1.52},
      {"measurement": "INSL6 expression level Ratio 1st", "value": 1.66},
      {"measurement": "IRC039700 expression level Ratio 1st", "value": 2.12},
      {"measurement": "KCNJ15 expression level Ratio 1st", "value": 1.88},
      {"measurement": "KIAA0161 expression level Ratio 1st", "value": 1.54},
      {"measurement": "KIAA0212 expression level Ratio 1st", "value": 2.01},
      {"measurement": "LBP-9 expression level Ratio 1st", "value": 1.93},
      {"measurement": "LDB1 expression level Ratio 1st", "value": 1.58},
      {"measurement": "LICAM expression level Ratio 1st", "value": 1.87},
      {"measurement": "LILRB5 expression level Ratio 1st", "value": 1.73},
      {"measurement": "LOC51024 expression level Ratio 1st", "value": 1.67},
      {"measurement": "LRP8 expression level Ratio 1st", "value": 1.52},
      {"measurement": "LZLP expression level Ratio 1st", "value": 1.58},
      {"measurement": "MAFG expression level Ratio 1st", "value": 2.51},
      {"measurement": "MGC2306 expression level Ratio 1st", "value": 1.55},
      {"measurement": "MGC2941 expression level Ratio 1st", "value": 1.90},
      {"measurement": "MPP6 expression level Ratio 1st", "value": 1.67},
      {"measurement": "MT-ACT48 expression level Ratio 1st", "value": 1.59},
      {"measurement": "OCM expression level Ratio 1st", "value": 1.7},
      {"measurement": "OMP expression level Ratio 1st", "value": 1.55},
      {"measurement": "OPA3 expression level Ratio 1st", "value": 2.46},
      {"measurement": "ORC5L expression level Ratio 1st", "value": 1.67},
      {"measurement": "ORM1 expression level Ratio 1st", "value": 1.58},
      {"measurement": "PCDHA4 expression level Ratio 1st", "value": 1.94},
      {"measurement": "PCDHB10 expression level Ratio 1st", "value": 1.63},
      {"measurement": "PDCD8 expression level Ratio 1st", "value": 2.00},
      {"measurement": "PFKFB4 expression level Ratio 1st", "value": 4.90},
      {"measurement": "PGAM1 expression level Ratio 1st", "value": 2.13},
      {"measurement": "PITPN expression level Ratio 1st", "value": 1.73},
      {"measurement": "PLA2G2A expression level Ratio 1st", "value": 3.01},
      {"measurement": "PLCE1 expression level Ratio 1st", "value": 2.89},
      {"measurement": "PLEKHA1 expression level Ratio 1st", "value": 1.54},
      {"measurement": "PRO2121 expression level Ratio 1st", "value": 1.89},
      {"measurement": "PRO2831 expression level Ratio 1st", "value": 1.51},
      {"measurement": "RDH5 expression level Ratio 1st", "value": 1.62},
      {"measurement": "RP1 expression level Ratio 1st", "value": 1.54},
      {"measurement": "RPL39L expression level Ratio 1st", "value": 2.30},
      {"measurement": "RPS16 expression level Ratio 1st", "value": 1.56},
      {"measurement": "SC65 expression level Ratio 1st", "value": 1.56},
      {"measurement": "SCD expression level Ratio 1st", "value": 1.74},
      {"measurement": "SCN2B expression level Ratio 1st", "value": 1.52},
      {"measurement": "SLC22A11 expression level Ratio 1st", "value": 1.66},
      {"measurement": "SNAP91 expression level Ratio 1st", "value": 3.38},
      {"measurement": "STK11 expression level Ratio 1st", "value": 1.62},
      {"measurement": "SURF1 expression level Ratio 1st", "value": 1.92},
      {"measurement": "TCEA1 expression level Ratio 1st", "value": 1.54},
      {"measurement": "TGM2 expression level Ratio 1st", "value": 1.59},
      {"measurement": "TIMM10 expression level Ratio 1st", "value": 1.87},
      {"measurement": "TLAL1 expression level Ratio 1st", "value": 2.34},
      {"measurement": "TMPRSS4 expression level Ratio 1st", "value": 1.55},
      {"measurement": "TOP3B expression level Ratio 1st", "value": 1.59},
      {"measurement": "TPARL expression level Ratio 1st", "value": 1.56},
      {"measurement": "TRPV4 expression level Ratio 1st", "value": 1.77},
      {"measurement": "TSPAN-1 expression level Ratio 1st", "value": 1.67},
      {"measurement": "UXT expression level Ratio 1st", "value": 2.90},
      {"measurement": "WHSC2 expression level Ratio 1st", "value": 1.65}
    ]}
  ]
}
